Source: patent US20200278355A1, “CONJUGATED PROTEINS AND USES THEREOF” (THE SCRIPPS RESEARCH INSTITUTE, priority 2017, published 2020)

Target: T1, TXNRD1 (Homo sapiens, UniProt Q16881)
T1 construct: endogenous in cells; host or cells: H460
Test: isoTOP-ABPP of compound-treated H460 cells: TXNRD1
Format: cell-based
Conditions: TXNRD1 U648; 40 μM
Protocol: For analysis of NR0B1 ligands or control compound reactivity, H460 cells or H460 cells expressing luciferase in a 10 cm plate were incubated with indicated compounds in serum/dye-free RPMI for 3 hours at 37° C. Cells were washed once ice-cold PBS and lysed in 1% Triton X-100 dissolved in PBS with protease inhibitors (Sigma) by sonication. Samples were clarified by centrifugation for 10 min at 16,000×g. Lysate was adjusted to 1.5 mg ml^−1 in 500 μL.
Samples were labeled for 1 h at ambient temperature with 100 μM iodoacetamide alkyne (1, IA-alkyne, 5 μL of 10 mM stock in DMSO). Samples were conjugated by copper-catalyzed azide-alkyne cycloaddition (CuAAC) to isotopically labeled, TEV-cleavable tags (TEV-tags). Heavy CuAAC reaction mixtures was added to the DMSO-treated or shGFP control samples and light CuAAC reaction mixture was added to compound-treated or shNRF2 samples. The CuAAC reaction mixture consisted of TEV tags (light or heavy, 10 μL of 5 mM stocks in DMSO, final concentration=100 μM), 1 mM tris(2-carboxyethyl)phosphine hydrochloride (TCEP; fresh 50× stock in water, final concentration=1 mM), ligand (17× stock in DMSO:t-butanol 1:4, final concentration=100 μM) and 1 mM CuSO4 (50× stock in water, final concentration=1 mM). The samples were allowed to react for 1 h at which point the samples were centrifuged (16,000×g, 5 min, 4° C.). […]

T1 sequence (Q16881 whole entry): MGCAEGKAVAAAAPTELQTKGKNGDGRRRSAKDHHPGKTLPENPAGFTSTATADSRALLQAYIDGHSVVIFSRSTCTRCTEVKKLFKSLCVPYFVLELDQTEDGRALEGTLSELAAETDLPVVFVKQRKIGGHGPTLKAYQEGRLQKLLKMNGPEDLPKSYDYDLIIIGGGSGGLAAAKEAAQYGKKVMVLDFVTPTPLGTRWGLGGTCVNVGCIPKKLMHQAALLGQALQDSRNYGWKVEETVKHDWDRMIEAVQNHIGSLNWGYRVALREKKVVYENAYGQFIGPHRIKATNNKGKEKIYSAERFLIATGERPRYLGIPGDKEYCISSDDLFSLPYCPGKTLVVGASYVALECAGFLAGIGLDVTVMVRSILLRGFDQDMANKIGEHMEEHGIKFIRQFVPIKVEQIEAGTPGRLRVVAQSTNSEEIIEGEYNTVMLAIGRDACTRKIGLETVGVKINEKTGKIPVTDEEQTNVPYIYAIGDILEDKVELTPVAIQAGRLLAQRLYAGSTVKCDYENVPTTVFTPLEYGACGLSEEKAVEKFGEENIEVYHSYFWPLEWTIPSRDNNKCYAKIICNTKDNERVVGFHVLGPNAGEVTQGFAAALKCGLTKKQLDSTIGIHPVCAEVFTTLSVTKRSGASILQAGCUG

## O=C(c1ccc(N2CCOCC2)cc1)N1CCCC(N(Cc2ccccc2)C(=O)CCl)CC1 (stereo not shown) [BPK-29, N-benzyl-2-chloro-N-(1-(4-morpholinobenzoyl)azepan-4-yl)acetamide]
  BPK-29-competed isoTOP-ABPP analysis: Yes (Competed defined as showing R value ≥ 3.0 at 40 μM of test compound)
